Consider 13 compounds from patent US4628115A, “Substituted 4-acetyl-3-hydroxyphenoxy alkanoic acids” (Hoffmann-La Roche Inc., priority 1985, dated 1986).

Structures are written as SMILES. Where two headings read alike, the source gives them in different places.

In experiment [1] the test system is SRS-A induced constriction of the guinea pig ileum. The experiment is described as follows: Guinea Pig Ileum, In Vitro (SRS-A antagonism). Format: cell-based. As to conditions: Cavia porcellus. The protocol: The guinea pig ileum bioassay system has been described by Orange and Austen, Adv. Immunol. […] A 1.5 cm segment is removed from animals weighing 300-400 g. and suspended in an organ bath containing 10 ml. of Tyrodes solution with 10^-6 M atropine sulfate and 10^-6 M pyrilamine maleate. […] The SRS-A utilized in this screen is obtained by challenging chopped lung fragments from actively sensitized guinea pigs with egg albumin, in vitro. A dose-response curve to SRS-A challenge is established for the ileum. […] The drug concentration which inhibits, by 50%, the SRS-A induced constriction of the guinea pig ileum is determined.

For another experiment, the system named is leukotriene E4. The experiment is described as follows: Guinea Pig Bronchoconstriction, In Vivo (leukotriene E4 i.v. challenge, drug i.v.). Also noted: species or system guinea pig (Hartley strain, male). The settings on record: 10 mg/kg i.v., maximally constrictory dose of leukotriene E4 i.v. The protocol: Male guinea pigs (Hartley strain) weighing 300 to 450 grams are anesthetized with urethane (2 g/Kg) intraperitoneally and a polyethylene cannula is inserted into the jugular vein for intravenous drug administration. Tracheal pressure is recorded from a cannula inserted in the trachea and connected to a Statham pressure transducer. Respiration is paralyzed with succinyl choline (1.2 mg/kg, i.v.) and the animals are mechanically respirated ([…] rodent respirator) at 40 breaths/minute and 2.5 cc tidal volume. The minutes thereafter, propranolol (0.1 mg/kg, i.v.) is administered. Five minutes later, the animals are pretreated intravenously for 30 seconds (at 10 mg/kg) with test drug or control vehicle. The animals are subsequently challenged with a maximally constrictory dose of leukotriene E4 also administered intravenously. The change (cm H2 O) between pre and peak ventilatory pressure readings is averaged calculated from the following formula: [formula]

Experiment [2] concerns LTE4. The experiment is described as follows: Aerosol Test (LTE4-induced bronchoconstriction, drug by inhalation). The settings on record: 1% (W/V) aerosol solution, five minute exposure, LTE4 i.v. challenge. Format: in vivo, guinea pig (Hartley strain, male). The procedure:
Male guinea pigs (Hartley strain) weighing 300 to 500 g are anesthetized with urethane (2 g/kg) intraperitoneally and a polyethylene cannula is inserted into the jugular vein for test compound administration. Tracheal pressure is recorded from a cannula inserted in the trachea and connected to a Statham pressure transducer. After surgical preparation of the animals, a period of time is allowed for pulmonary functions to stabilize. For testing purposes, drugs are administered according to the following protocol. Propranolol (0.1 mg/kg) is administered intravenously while the animals breathed spontaneously. Five minutes thereafter, the animals are exposed for a five minute period to a 1% (W/V) aerosol solution of test compound (adjusted to an alkaline pH where necessary for compound solubilization) or to distilled water of the appropriate pH (for control purposes). A Monaghan (Model 750) ultrasonic nebulizer is used to administer all compounds by inhalation. Aqueous solutions are prepared fresh and introduced into the chamber of the nebulizer. The output of the nebulizer is made available to the animal by directing a bias flow of aerosol through a y tube connected to the tracheal cannula. At the end of the exposure period, the animals are paralyzed with succinylcholine (1.2 mg/kg, i.v.) and mechanically respirated (Harvard rodent respirator) at 40 breaths/min and 2.5 cc tidal volume. […]

In experiment [3] the test system is LTE4. Briefly: Rat Skin Permeability, in Vivo (LTE4-induced wheal). The settings on record: 10 mg/kg i.v., LTE4 intradermal, 30 min, 5 animals. The protocol: In this model the ability of LTE4 to increase vascular permeability in rat skin was utilized. Anesthetized rats, pretreated for 30 minutes with an antihistamine, pyrilamine maleate, (50 mg/kg i.p.) and a serotonin antagonist, methylsergide maleate (4 mg/kg i.p.), were injected intradermally with a dose of LTE4 which gave a maximum wheal (in 0.05 ml saline). After introduction of test drug (at 10 mg/kg, i.v.) the animals were immediately treated intravenously with Evans blue dye i.v. (0.5%) in the tail vein resulting in the formation of a skin wheal. Thirty minutes later the animals were sacrificed and the skin wheal size was measured. The average response in 5 animals (4 intradermal injections per animal) treated with test compound was compared to that obtained in a similar group of control animals to determine the percent inhibition by the drug. A representative compound of the present invention, i.e., 6-(4-acetyl-3-hydroxy-2-propylphenoxy)hexanoic acid, caused a 35% reduction in skin wheal when tested at 10 mg/kg i.v.

The mark [4] stands for this setting: guinea pig ileum, SRS-A challenge at EC50, 37° C., Table I, read-out: In vitro SRSA Antagonism Test, Guinea Pig Ileum IC50.

As to `CCCc1c(OCC(O)COc2ccc3c(=O)cc(C(=O)O)oc3c2CCC)ccc(C(C)=O)c1O` (centres unmarked) [7-[3-(4-acetyl-3-hydroxy-2-propylphenoxy)-2-hydroxypropoxy]-4-oxo-8-propyl-4 H-1-benzopyran-2-carboxylic acid, reference compound], the IC50 in experiment [1] (read-out: IC50 (standard SRS-A antagonist)) turned out to be 0.035 µM. Besides, in the experiment on leukotriene E4, the “inhibition of leukotriene E4 bronchoconstriction” value amounted to 98%.
As to `CCCc1c(OCCOCCOCCOCCC(=O)O)ccc(C(C)=O)c1O` [(CH2)2 O(CH2)2 O(CH2)2 O(CH2)2, 3-[2-[2-[2-(4-Acetyl-3-hydroxy-2-propylphenoxy)ethoxy]ethoxy]ethoxy]propanoic acid semihydrate], the IC50 in experiment [1] (setting [4]) was found to be 6 µM.
Regarding `CCCc1c(OCCOCCC(=O)O)ccc(C(C)=O)c1O` [(CH2)2 O(CH2)2, 3-[2-(4-Acetyl-3-hydroxy-2-propylphenoxy)ethoxy]propanoic acid semihydrate], the IC50 in experiment [1] (setting [4]) turned out to be 5 µM.
On to `CCCc1c(OCCC(=O)O)ccc(C(C)=O)c1O` [(CH2)2, 3-(4-Acetyl-3-hydroxy-2-propylphenoxy)propanoic acid], for which the IC50 in experiment [1] (setting [4]) amounted to 10 µM.
As to `CCCc1c(OCCCC#CC(=O)O)ccc(C(C)=O)c1O` [(CH2)3 CC, 6-(4-Acetyl-3-hydroxy-2-propylphenoxy)-2-hexynoic acid], the IC50 in experiment [1] (setting [4]) stood at 1 µM.
`CCCc1c(OCCCC(=O)O)ccc(C(C)=O)c1O` [(CH2)3, 4-(4-Acetyl-3-hydroxy-2-propylphenoxy)butanoic acid]: the IC50 in experiment [1] (setting [4]) was 10 µM.
`CCCc1c(OCCCCC(=O)O)ccc(C(C)=O)c1O` [(CH2)4, 5-(4-Acetyl-3-hydroxy-2-propylphenoxy)pentanoic acid]: the IC50 in experiment [1] (setting [4]) is 5 µM.
As for `CCCc1c(OCCCCCC(=O)O)ccc(C(C)=O)c1O` [(CH2)5, 6-(4-Acetyl-3-hydroxy-2-propylphenoxy)hexanoic acid], the IC50 in experiment [1] (setting [4]) turned out to be 1 µM. Further, the “inhibition of leukotriene E4 bronchoconstriction” value in the experiment with leukotriene E4 is reported as 73%. Also, the “inhibition of the bronchoconstriction” value with LTE4 [2] is listed as 36%. The “reduction in skin wheal” value in the experiment with LTE4 [3] is on record as 35%.
Consider `CCCc1c(OCCCCCCC(=O)O)ccc(C(C)=O)c1O` [(CH2)6, 7-(4-Acetyl-3-hydroxy-2-propylphenoxy)heptanoic acid], for which, in experiment [1] (setting [4]), the IC50 turned out to be 5 µM.
The same measure, in the same setting: the same measure for `CCCc1c(OCCCCCCCC(=O)O)ccc(C(C)=O)c1O` [(CH2)7, 8-(4-Acetyl-3-hydroxy-2-propylphenoxy)octanoic acid]: 5 µM.
Regarding `CCCc1c(OCCCCCCCCCCC(=O)O)ccc(C(C)=O)c1O` [(CH2)10, 11-(4-Acetyl-3-hydroxy-2-propylphenoxy)undecanoic acid], the IC50 in experiment [1] (setting [4]) is 10 µM.
For `CCCc1c(OCC#CCCCC(=O)O)ccc(C(C)=O)c1O` [CH2 CC(CH2)3, 7-(4-Acetyl-3-hydroxy-2-propylphenoxy)-5-heptynoic acid], the IC50 in experiment [1] (setting [4]) amounted to 1 µM.
Same read-out and setting: the same measure for `CCCc1c(OCC(=O)O)ccc(C(C)=O)c1O` [CH2, (4-Acetyl-3-hydroxy-2-propylphenoxy)acetic acid]: 10 µM.

The IC50 is the concentration that inhibits the measured activity by half.
